As a reminder, the Dmax is the greatest extent of degradation seen. In general, DC50 refers to the concentration giving 50% degradation.

Read-outs that look alike come from different tables or passages of the source. Where only a bound is given, the exact number is not on record here.

The experiment addresses T1, BRM (Homo sapiens, UniProt P51531).
T1 construct: In-Cell Western Screen of BRM Degradation in SW1573 Cells; endogenous in cells; host or cells: SW1573
Briefly: In-cell Western screen of BRM degradation in SW1573 cells (Dmax and DC50). Format: cell-based. The essentials:
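BRM levels were read by LI-COR in-cell Western after two-channel (800/680 nm) immunostaining of fixed, Triton-permeabilised SW1573 cells.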

Where [1] appears, read: SW1573, % degraded, when tested at the top concentration of between 0.3 and 10 μM, read-out: BRM Dmax (%).
The mark [2] stands for this setting: degradation of BRM, read-out: BRM DC50.
Setting [3] is: target protein degradation, read-out: BRM DC50.
[4] abbreviates: BRM degradation, SW1573 cells, Table 2D, read-out: *DC50.
The mark [5] stands for this setting: BRM degradation, SW1573 cells, read-out: DC50.
[6] abbreviates: BRM degradation, SW1573 cells, when tested at the top concentration of between 0.3 and 10 μM, read-out: Dmax (%) (% degraded).
The mark [7] stands for this setting: BRM degradation, SW1573 cells, read-out: Dmax (% degraded).

T1 sequence (P51531 whole entry): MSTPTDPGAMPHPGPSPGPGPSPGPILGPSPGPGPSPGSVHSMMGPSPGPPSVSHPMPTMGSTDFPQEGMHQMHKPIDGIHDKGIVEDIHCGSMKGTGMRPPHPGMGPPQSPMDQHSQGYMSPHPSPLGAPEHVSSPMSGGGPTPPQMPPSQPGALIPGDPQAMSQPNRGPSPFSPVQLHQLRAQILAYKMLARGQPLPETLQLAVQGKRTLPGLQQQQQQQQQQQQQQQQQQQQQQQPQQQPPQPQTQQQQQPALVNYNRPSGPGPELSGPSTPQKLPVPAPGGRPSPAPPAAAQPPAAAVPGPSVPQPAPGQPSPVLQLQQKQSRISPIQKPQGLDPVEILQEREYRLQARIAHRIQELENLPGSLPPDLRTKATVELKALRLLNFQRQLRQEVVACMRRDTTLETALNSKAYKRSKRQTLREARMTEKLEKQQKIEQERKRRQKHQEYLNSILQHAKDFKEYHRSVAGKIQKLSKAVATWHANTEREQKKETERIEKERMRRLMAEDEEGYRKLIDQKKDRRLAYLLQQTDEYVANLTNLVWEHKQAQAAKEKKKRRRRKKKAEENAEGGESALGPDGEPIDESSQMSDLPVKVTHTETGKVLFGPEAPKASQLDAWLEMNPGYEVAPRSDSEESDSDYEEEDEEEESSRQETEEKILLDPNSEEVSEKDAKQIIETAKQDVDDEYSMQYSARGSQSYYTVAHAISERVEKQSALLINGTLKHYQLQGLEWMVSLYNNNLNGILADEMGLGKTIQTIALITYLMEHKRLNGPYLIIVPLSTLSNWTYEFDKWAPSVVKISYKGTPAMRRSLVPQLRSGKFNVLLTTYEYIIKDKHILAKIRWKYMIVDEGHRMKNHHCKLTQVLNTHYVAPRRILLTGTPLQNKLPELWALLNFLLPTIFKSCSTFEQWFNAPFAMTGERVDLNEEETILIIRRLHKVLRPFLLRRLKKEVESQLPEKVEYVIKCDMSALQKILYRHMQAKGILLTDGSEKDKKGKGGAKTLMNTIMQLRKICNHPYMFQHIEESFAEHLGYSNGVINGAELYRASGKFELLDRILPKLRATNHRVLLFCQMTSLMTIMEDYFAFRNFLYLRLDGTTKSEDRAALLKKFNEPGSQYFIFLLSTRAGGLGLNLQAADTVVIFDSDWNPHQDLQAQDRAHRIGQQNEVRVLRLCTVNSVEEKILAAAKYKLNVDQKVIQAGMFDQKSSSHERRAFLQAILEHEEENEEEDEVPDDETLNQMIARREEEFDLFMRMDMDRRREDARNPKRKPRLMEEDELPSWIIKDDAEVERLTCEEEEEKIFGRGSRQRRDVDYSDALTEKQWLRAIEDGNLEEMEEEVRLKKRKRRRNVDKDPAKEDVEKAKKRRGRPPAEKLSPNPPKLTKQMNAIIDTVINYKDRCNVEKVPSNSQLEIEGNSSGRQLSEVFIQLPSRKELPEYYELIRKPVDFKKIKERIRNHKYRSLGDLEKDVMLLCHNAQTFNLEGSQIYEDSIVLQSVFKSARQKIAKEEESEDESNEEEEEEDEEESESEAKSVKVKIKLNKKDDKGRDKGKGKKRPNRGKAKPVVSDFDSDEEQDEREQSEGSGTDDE

In the case of `Cc1ncsc1-c1ccc([C@H](C)NC(=O)[C@@H]2C[C@@H](O)CN2C(=O)[C@H](c2cc(OCCC3CCN([C@H]4C[C@H](CN5CCOC6(CCN(c7cc(-c8ccccc8O)nnc7N)CC6)C5)C4)CC3)no2)C(C)C)cc1` [compound 444, (2S,4R)-1-((S)-2-(3-(2-(1-((1r,3S)-3-((9-(3-amino-6-(2-hydroxyphenyl)pyridazin-4-yl)-1-oxa-4,9-diazaspiro[5.5]undecan-4-yl)methyl)cyclobutyl)piperidin-4-yl)ethoxy)isoxazol-5-yl)-3-methylbutanoyl)-4-hydroxy-N-((S)-1-(4-(4-methylthiazol-5-yl)phenyl)ethyl)pyrrolidine-2-carboxamide], the Dmax under setting [1] was more than 75%. For the same compound, the DC50 under setting [2] was less than 2.5 nM.

In the case of `Cc1ncsc1-c1ccc([C@@H](NC(=O)[C@@H]2C[C@@H](O)CN2C(=O)[C@H](c2cc(OCCN3CCC(O[C@H]4C[C@H](Oc5cc(N6C7CCC6CN(c6cc(-c8ccccc8O)nnc6N)C7)ccn5)C4)CC3)no2)C(C)C)C(=O)N(C)C2CCC2)cc1` [compound 423, (2S,4R)-1-((2S)-2-(3-(2-(4-((1r,3S)-3-((4-(3-(3-amino-6-(2-hydroxyphenyl)pyridazin-4-yl)-3,8-diazabicyclo[3.2.1]octan-8-yl)pyridin-2-yl)oxy)cyclobutoxy)piperidin-1-yl)ethoxy)isoxazol-5-yl)-3-methylbutanoyl)-N-((R)-2-(cyclobutyl(methyl)amino)-1-(4-(4-methylthiazol-5-yl)phenyl)-2-oxoethyl)-4-hydroxypyrrolidine-2-carboxamide], the DC50 under setting [2] was more than 30 nM.

For the compound `Cc1n[nH]c(C)c1-c1ccc([C@H](C)NC(=O)[C@@H]2C[C@@H](O)CN2C(=O)[C@H](c2cc(OCCN3CCC(O[C@H]4C[C@H](Oc5cc(N6C7CCC6CN(c6cc(-c8ccccc8O)nnc6N)C7)ccn5)C4)CC3)no2)C(C)C)cc1` [compound 377, (2S,4R)-1-((2S)-2-(3-(2-(4-((1r,3S)-3-((4-(3-(3-amino-6-(2-hydroxyphenyl)pyridazin-4-yl)-3,8-diazabicyclo[3.2.1]octan-8-yl)pyridin-2-yl)oxy)cyclobutoxy)piperidin-1-yl)ethoxy)isoxazol-5-yl)-3-methylbutanoyl)-N-((S)-1-(4-(3,5-dimethyl-1H-pyrazol-4-yl)phenyl)ethyl)-4-hydroxypyrrolidine-2-carboxamide], under setting [1], the Dmax was more than 75%. Under setting [3], the DC50 lay in the range of 10 to 30 nM.

As to `Cc1cc([C@H](C(=O)N2C[C@H](O)C[C@H]2C(=O)N[C@@H](C)c2ccc(-c3scnc3C)cc2)[C@H](C)COCCCn2cc(-c3cc(-c4ccccc4O)nnc3N)cn2)on1` [compound 560, (2S,4R)-1-((2R,3S)-4-(3-(4-(3-amino-6-(2-hydroxyphenyl)pyridazin-4-yl)-1H-pyrazol-1-yl)propoxy)-3-methyl-2-(3-methylisoxazol-5-yl)butanoyl)-4-hydroxy-N-((S)-1-(4-(4-methylthiazol-5-yl)phenyl)ethyl)pyrrolidine-2-carboxamide], the DC50 under setting [4] is more than 30 nM.

`Cc1ncsc1-c1ccc([C@H](C)NC(=O)[C@@H]2C[C@@H](O)CN2C(=O)[C@@H](c2cc(OCCOCCOCCCCN3CC4(C3)CN(c3cc(-c5ccccc5O)nnc3N)C4)no2)C(C)C)cc1` [compound 66, (2S,4R)-1-((R)-2-(3-(2-(2-(4-(6-(3-amino-6-(2-hydroxyphenyl)pyridazin-4-yl)-2,6-diazaspiro[3.3]heptan-2-yl)butoxy)ethoxy)ethoxy)isoxazol-5-yl)-3-methylbutanoyl)-4-hydroxy-N-((S)-1-(4-(4-methylthiazol-5-yl)phenyl)ethyl)pyrrolidine-2-carboxamide]: the DC50 under setting [5] is more than 30 nM. Also, under setting [6], the greatest degradation seen (Dmax) is more than 75%.

Turning to `Cc1ncsc1-c1ccc([C@H](C)NC(=O)[C@@H]2C[C@@H](O)CN2C(=O)[C@@H](c2cc(OCCOCCOc3cc(N4C5CCC4CN(c4cc(-c6ccccc6O)nnc4N)C5)ccn3)no2)C(C)C)cc1` [compound 357, (2S,4R)-1-((2R)-2-(3-(2-(2-((4-(3-(3-amino-6-(2-hydroxyphenyl)pyridazin-4-yl)-3,8-diazabicyclo[3.2.1]octan-8-yl)pyridin-2-yl)oxy)ethoxy)ethoxy)isoxazol-5-yl)-3-methylbutanoyl)-4-hydroxy-N-((S)-1-(4-(4-methylthiazol-5-yl)phenyl)ethyl)pyrrolidine-2-carboxamide], under setting [1], the Dmax was more than 75%. Under setting [3], the DC50 is less than 2.5 nM.

Consider `Cc1nccn1-c1ccc([C@H](C)NC(=O)[C@@H]2C[C@@H](O)CN2C(=O)[C@@H](c2cc(N3CCN(C[C@H]4C[C@H](Oc5cc(N6C7CCC6CN(c6cc(-c8ccccc8O)nnc6N)C7)ccn5)C4)CC3)no2)C(C)C)cc1` [compound 576, (2S,4R)-1-((2R)-2-(3-(4-(((1r,3R)-3-((4-(3-(3-amino-6-(2-hydroxyphenyl)pyridazin-4-yl)-3,8-diazabicyclo[3.2.1]octan-8-yl)pyridin-2-yl)oxy)cyclobutyl)methyl)piperazin-1-yl)isoxazol-5-yl)-3-methylbutanoyl)-4-hydroxy-N-((S)-1-(4-(2-methyl-1H-imidazol-1-yl)phenyl)ethyl)pyrrolidine-2-carboxamide], for which, for the setting “BRM degradation, SW1573 cells, Table 2D, read-out: **Dmax (%) (% degraded)”, the maximal degradation (Dmax) is more than 75%. The DC50 under setting [4] is less than 2.5 nM.

With `Cc1cc([C@H](C(=O)N2C[C@H](O)C[C@H]2C(=O)N[C@@H](C)c2ccc(-c3scnc3C)cc2)[C@@H](C)COCCOc2cc(N3C4CCC3CN(c3cc(-c5ccccc5O)nnc3N)C4)ccn2)on1` [compound 302, (2S,4R)-1-((2R,3R)-4-(2-((4-(3-(3-amino-6-(2-hydroxyphenyl)pyridazin-4-yl)-3,8-diazabicyclo[3.2.1]octan-8-yl)pyridin-2-yl)oxy)ethoxy)-3-methyl-2-(3-methylisoxazol-5-yl)butanoyl)-4-hydroxy-N-((S)-1-(4-(4-methylthiazol-5-yl)phenyl)ethyl)pyrrolidine-2-carboxamide], the DC50 under setting [5] fell in the range of 10 to 30 nM. The Dmax (BRM degradation, SW1573 cells, tested at the top concentration of between 0.3 and 10 μM, read-out: Dmax (%) (% degraded)) was more than 75%.

Take `Cc1ncsc1-c1ccc([C@H](CO)NC(=O)[C@@H]2C[C@@H](O)CN2C(=O)[C@@H](c2cc(N3CCC(CN4CCC(O[C@H]5C[C@H](Oc6cc(N7C8CCC7CN(c7cc(-c9ccccc9O)nnc7N)C8)ccn6)C5)CC4)CC3)no2)C(C)C)cc1` [compound 653, (2S,4R)-1-((2R)-2-(3-(4-((4-((1r,3r)-3-((4-(3-(3-amino-6-(2-hydroxyphenyl)pyridazin-4-yl)-3,8-diazabicyclo[3.2.1]octan-8-yl)pyridin-2-yl)oxy)cyclobutoxy)piperidin-1-yl)methyl)piperidin-1-yl)isoxazol-5-yl)-3-methylbutanoyl)-4-hydroxy-N-((R)-2-hydroxy-1-(4-(4-methylthiazol-5-yl)phenyl)ethyl)pyrrolidine-2-carboxamide]: the DC50 under setting [5] was less than 2.5 nM. Further, the Dmax under setting [7] was more than 75%.

Consider `Cc1ncsc1-c1ccc([C@H](C)NC(=O)[C@@H]2C[C@@H](O)CN2C(=O)[C@@H](c2cc(OCCN3CCN(CC#CCn4cc(-c5cc(-c6ccccc6O)nnc5N)cn4)CC3)no2)C(C)C)cc1` [compound 113, (2S,4R)-1-((R)-2-(3-(2-(4-(4-(4-(3-amino-6-(2-hydroxyphenyl)pyridazin-4-yl)-1H-pyrazol-1-yl)but-2-yn-1-yl)piperazin-1-yl)ethoxy)isoxazol-5-yl)-3-methylbutanoyl)-4-hydroxy-N-((S)-1-(4-(4-methylthiazol-5-yl)phenyl)ethyl)pyrrolidine-2-carboxamide], for which the DC50 under setting [5] was less than 2.5 nM. The Dmax under setting [6] was more than 75%.

Consider `CC(C)[C@H](C(=O)N1C[C@H](O)C[C@H]1C(=O)N[C@@H](C)c1ccc(-c2scnc2N)cc1)c1cc(N2CCC(CN3CCC(O[C@H]4C[C@H](Oc5cc(N6C7CCC6CN(c6cc(-c8ccccc8O)nnc6N)C7)ccn5)C4)CC3)CC2)no1` [compound 629, (2S,4R)-1-((2S)-2-(3-(4-((4-((1r,3r)-3-((4-(3-(3-amino-6-(2-hydroxyphenyl)pyridazin-4-yl)-3,8-diazabicyclo[3.2.1]octan-8-yl)pyridin-2-yl)oxy)cyclobutoxy)piperidin-1-yl)methyl)piperidin-1-yl)isoxazol-5-yl)-3-methylbutanoyl)-N-((S)-1-(4-(4-aminothiazol-5-yl)phenyl)ethyl)-4-hydroxypyrrolidine-2-carboxamide], for which, under setting [5], the DC50 fell in the range of 2.5 to 10 nM. The Dmax under setting [7] is more than 75%.

With `Cc1ncsc1-c1ccc([C@H](C)NC(=O)[C@@H]2C[C@@H](O)CN2C(=O)[C@H](c2onc(OCCN3CCC(O[C@H]4C[C@H](Oc5cc(N6C7CCC6CN(c6cc(-c8ccccc8O)nnc6N)C7)ccn5)C4)CC3)c2Cl)C(C)C)cn1` [compound 222, (2S,4R)-1-((2S)-2-(3-(2-(4-((1r,3S)-3-((4-(3-(3-amino-6-(2-hydroxyphenyl)pyridazin-4-yl)-3,8-diazabicyclo[3.2.1]octan-8-yl)pyridin-2-yl)oxy)cyclobutoxy)piperidin-1-yl)ethoxy)-4-chloroisoxazol-5-yl)-3-methylbutanoyl)-4-hydroxy-N-((S)-1-(6-(4-methylthiazol-5-yl)pyridin-3-yl)ethyl)pyrrolidine-2-carboxamide], under setting [5], the DC50 was more than 30 nM.

Regarding `Cc1ncsc1-c1ccc([C@H](C)NC(=O)[C@@H]2C[C@@H](O)CN2C(=O)[C@@H](c2cc(OCCOc3ccc(C(C)n4cc(-c5cc(-c6ccccc6O)nnc5N)cn4)cn3)no2)C(C)C)cc1` (stereo partly drawn) [compound 82, (2S,4R)-1-((2R)-2-(3-(2-((5-(1-(4-(3-amino-6-(2-hydroxyphenyl)pyridazin-4-yl)-1H-pyrazol-1-yl)ethyl)pyridin-2-yl)oxy)ethoxy)isoxazol-5-yl)-3-methylbutanoyl)-4-hydroxy-N-((S)-1-(4-(4-methylthiazol-5-yl)phenyl)ethyl)pyrrolidine-2-carboxamide], the DC50 under setting [5] is less than 2.5 nM. Further, under setting [6], the Dmax was more than 75%.
